These are literature values, as cited in patent US11504333B2, “Pharmaceutical composition” (NOVARTIS AG, priority 2017, dated 2022).

Structures are written as SMILES. Entries after “also recorded” stand apart in the source; their conditions may differ. Read-outs that look alike come from different tables or passages of the source.

Assay in data set [1]: not given
This is another data set of the same source.

`CC(C)(C)c1nc(-c2cccc(NS(=O)(=O)c3c(F)cccc3F)c2F)c(-c2ccnc(N)n2)s1.CS(=O)(=O)O` [Compound A, N-{3-[5-(2-Amino-4-pyrimidinyl)-2-(1,1-dimethylethyl)-1,3-thiazol-4-yl]-2-fluorophenyl}-2,6-difluorobenzenesulfonamide, methanesulfonate salt]: the “Solubility (general)” value (aqueous, methanesulfonate salt) was “low solubility; also recorded: poor aqueous solubility”. The Solubility entry runs as follows: (slightly acidic, neutral pH, and basic media) “practically insoluble”; (strongly acidic aqueous media) “very slightly soluble”. For the same compound, in data set [1], the Permeability entry is on record as “high permeability”.
